In ChEMBL document CHEMBL5724914, “Linking interpersonal differences in gut microbiota composition and drug biotransformation activity” (2024):
Where a SMILES comes first, the peptide text is derived from it. [ ]: non-standard residue; d: D form. pGlu = O=C1CC[C@@H](C(=O)O)N1; Thz = O=C(O)[C@@H]1CSCN1

Columns and labels:
[1] = human gut metagenome, 24 h, 2 µM
[2] = The drug is tested on Z-006 corresponding to mouse gut metagenome with ENA study accession number: PRJEB37062 and ENA sample accession number: ERS12561806 for biotransformation under anaerobic condition. The drug concentrations were measured over 9 timepoints collected between 0 and 24 hours of incubation by liquid-chromatography-coupled mass spectrometry (LC–MS); settings: 2 µM
[3] = human gut metagenome, 24 h, 2 µM; remark: listed apart in the source
[4] = human gut metagenome, 24 h, 2 µM; remark: listed apart in the source
[5] = The drug is tested on Z-002 corresponding to rabbit gut metagenome with ENA study accession number: PRJEB37062 and ENA sample accession number: ERS12561802 for biotransformation under anaerobic condition. The drug concentrations were measured over 9 timepoints collected between 0 and 24 hours of incubation by liquid-chromatography-coupled mass spectrometry (LC–MS); settings: 2 µM
[6] = human gut metagenome, 24 h, 2 µM; remark: listed apart in the source
[7] = The drug is tested on Z-019 corresponding to rat gut metagenome with ENA study accession number: PRJEB37062 and ENA sample accession number: ERS12561818 for biotransformation under anaerobic condition. The drug concentrations were measured over 9 timepoints collected between 0 and 24 hours of incubation by liquid-chromatography-coupled mass spectrometry (LC–MS); settings: 2 µM
[8] = human gut metagenome, 24 h, 2 µM; remark: listed apart in the source
[9] = human gut metagenome, 24 h, 2 µM; remark: listed apart in the source
[10] = human gut metagenome, 24 h, 2 µM; remark: listed apart in the source
[11] = The drug is tested on Z-012 corresponding to metagenome with ENA study accession number: PRJEB37062 and ENA sample accession number: ERS12561812 for biotransformation under anaerobic condition. The drug concentrations were measured over 9 timepoints collected between 0 and 24 hours of incubation by liquid-chromatography-coupled mass spectrometry (LC–MS); settings: 2 µM
[12] = human gut metagenome, 24 h, 2 µM; remark: listed apart in the source
[13] = The drug is tested on Z-021 corresponding to metagenome with ENA study accession number: PRJEB37062 and ENA sample accession number: ERS12561820 for biotransformation under anaerobic condition. The drug concentrations were measured over 9 timepoints collected between 0 and 24 hours of incubation by liquid-chromatography-coupled mass spectrometry (LC–MS); settings: 2 µM
[14] = The drug is tested on Z-005 corresponding to metagenome with ENA study accession number: PRJEB37062 and ENA sample accession number: ERS12561805 for biotransformation under anaerobic condition. The drug concentrations were measured over 9 timepoints collected between 0 and 24 hours of incubation by liquid-chromatography-coupled mass spectrometry (LC–MS); settings: 2 µM
[15] = The drug is tested on Z-023 corresponding to metagenome with ENA study accession number: PRJEB37062 and ENA sample accession number: ERS12561822 for biotransformation under anaerobic condition. The drug concentrations were measured over 9 timepoints collected between 0 and 24 hours of incubation by liquid-chromatography-coupled mass spectrometry (LC–MS); settings: 2 µM
[16] = human gut metagenome, 24 h, 2 µM; remark: listed apart in the source
[17] = human gut metagenome, 24 h, 2 µM; remark: listed apart in the source
[18] = human gut metagenome, 24 h, 2 µM; remark: listed apart in the source
[19] = human gut metagenome, 24 h, 2 µM; remark: listed apart in the source
[20] = The drug is tested on Z-020 corresponding to rabbit gut metagenome with ENA study accession number: PRJEB37062 and ENA sample accession number: ERS12561819 for biotransformation under anaerobic condition. The drug concentrations were measured over 9 timepoints collected between 0 and 24 hours of incubation by liquid-chromatography-coupled mass spectrometry (LC–MS); settings: 2 µM
Also: call rule not given here.

O=C(NCc1ccccc1)OCCO [BURAMATE]
Bacterial Biotransformation [1]: Compound NOT metabolized
Bacterial Biotransformation [2]: Compound NOT metabolized
Bacterial Biotransformation [3]: Compound NOT metabolized
Bacterial Biotransformation [4]: Compound NOT metabolized
Bacterial Biotransformation [5]: Compound NOT metabolized
Bacterial Biotransformation [6]: Compound NOT metabolized
Bacterial Biotransformation [7]: Compound NOT metabolized
Bacterial Biotransformation [8]: Compound NOT metabolized
Bacterial Biotransformation [9]: Compound NOT metabolized
Bacterial Biotransformation [10]: Compound NOT metabolized
Bacterial Biotransformation [11]: Compound NOT metabolized
Bacterial Biotransformation [12]: Compound NOT metabolized
Bacterial Biotransformation [13]: Compound NOT metabolized
Bacterial Biotransformation [14]: Compound NOT metabolized
Bacterial Biotransformation [15]: Compound NOT metabolized
Bacterial Biotransformation [16]: Compound NOT metabolized
Bacterial Biotransformation [17]: Compound NOT metabolized
Bacterial Biotransformation [18]: Compound NOT metabolized
Bacterial Biotransformation [19]: Compound NOT metabolized

OCCN1CCN(CCCN2c3ccccc3Sc3ccc(C(F)(F)F)cc32)CC1 [FLUPHENAZINE]
Bacterial Biotransformation [1]: Compound metabolized
Bacterial Biotransformation [2]: Compound metabolized
Bacterial Biotransformation [3]: Compound metabolized
Bacterial Biotransformation [4]: Compound metabolized
Bacterial Biotransformation [5]: Compound metabolized
Bacterial Biotransformation [8]: Compound metabolized
Bacterial Biotransformation [9]: Compound metabolized
Bacterial Biotransformation [10]: Compound NOT metabolized
Bacterial Biotransformation [11]: Compound metabolized
Bacterial Biotransformation [12]: Compound metabolized
Bacterial Biotransformation [13]: Compound metabolized
Bacterial Biotransformation [14]: Compound metabolized
Bacterial Biotransformation [15]: Compound metabolized
Bacterial Biotransformation [16]: Compound metabolized
Bacterial Biotransformation [20]: Compound NOT metabolized
Bacterial Biotransformation [17]: Compound metabolized
Bacterial Biotransformation [18]: Compound metabolized
Bacterial Biotransformation [19]: Compound metabolized

c1ccc([C@H]2CN3CCSC3=N2)cc1 [LEVAMISOLE]
Bacterial Biotransformation [1]: Compound metabolized
Bacterial Biotransformation [2]: Compound metabolized
Bacterial Biotransformation [3]: Compound metabolized
Bacterial Biotransformation [4]: Compound metabolized
Bacterial Biotransformation [5]: Compound metabolized
Bacterial Biotransformation [6]: Compound metabolized
Bacterial Biotransformation [7]: Compound NOT metabolized
Bacterial Biotransformation [8]: Compound metabolized
Bacterial Biotransformation [9]: Compound metabolized
Bacterial Biotransformation [10]: Compound metabolized
Bacterial Biotransformation [11]: Compound NOT metabolized
Bacterial Biotransformation [12]: Compound NOT metabolized
Bacterial Biotransformation [16]: Compound metabolized
Bacterial Biotransformation [20]: Compound NOT metabolized
Bacterial Biotransformation [17]: Compound metabolized
Bacterial Biotransformation [18]: Compound NOT metabolized
Bacterial Biotransformation [19]: Compound metabolized

C#C[C@]1(O)CC[C@H]2[C@@H]3CCC4=CC(=O)CC[C@@H]4[C@H]3CC[C@@]21CC [LEVONORGESTREL]
Bacterial Biotransformation [1]: Compound metabolized
Bacterial Biotransformation [2]: Compound metabolized
Bacterial Biotransformation [3]: Compound metabolized
Bacterial Biotransformation [4]: Compound metabolized
Bacterial Biotransformation [5]: Compound metabolized
Bacterial Biotransformation [7]: Compound metabolized
Bacterial Biotransformation [8]: Compound metabolized
Bacterial Biotransformation [9]: Compound metabolized
Bacterial Biotransformation [10]: Compound metabolized
Bacterial Biotransformation [12]: Compound metabolized
Bacterial Biotransformation [16]: Compound metabolized
Bacterial Biotransformation [20]: Compound metabolized
Bacterial Biotransformation [17]: Compound metabolized
Bacterial Biotransformation [18]: Compound metabolized
Bacterial Biotransformation [19]: Compound metabolized

COc1c(C)c2c(c(O)c1C/C=C(\C)CCC(=O)OCCN1CCOCC1)C(=O)OC2 [MYCOPHENOLATE MOFETIL]
Bacterial Biotransformation [1]: Compound metabolized
Bacterial Biotransformation [2]: Compound metabolized
Bacterial Biotransformation [3]: Compound metabolized
Bacterial Biotransformation [4]: Compound metabolized
Bacterial Biotransformation [5]: Compound metabolized
Bacterial Biotransformation [6]: Compound metabolized
Bacterial Biotransformation [7]: Compound NOT metabolized
Bacterial Biotransformation [8]: Compound metabolized
Bacterial Biotransformation [9]: Compound metabolized
Bacterial Biotransformation [10]: Compound metabolized
Bacterial Biotransformation [11]: Compound metabolized
Bacterial Biotransformation [12]: Compound metabolized
Bacterial Biotransformation [13]: Compound metabolized
Bacterial Biotransformation [14]: Compound metabolized
Bacterial Biotransformation [15]: Compound metabolized
Bacterial Biotransformation [16]: Compound metabolized
Bacterial Biotransformation [17]: Compound metabolized
Bacterial Biotransformation [18]: Compound metabolized
Bacterial Biotransformation [19]: Compound metabolized

O=C1CC[C@@H](C(=O)N2CSC[C@H]2C(=O)O)N1 [PIDOTIMOD] ([pGlu]-[Thz]-OH)
Bacterial Biotransformation [1]: Compound NOT metabolized
Bacterial Biotransformation [2]: Compound NOT metabolized
Bacterial Biotransformation [3]: Compound NOT metabolized
Bacterial Biotransformation [5]: Compound NOT metabolized
Bacterial Biotransformation [6]: Compound NOT metabolized
Bacterial Biotransformation [7]: Compound NOT metabolized
Bacterial Biotransformation [9]: Compound NOT metabolized
Bacterial Biotransformation [11]: Compound NOT metabolized
Bacterial Biotransformation [12]: Compound NOT metabolized
Bacterial Biotransformation [14]: Compound metabolized
Bacterial Biotransformation [15]: Compound metabolized
Bacterial Biotransformation [16]: Compound metabolized
Bacterial Biotransformation [20]: Compound NOT metabolized
Bacterial Biotransformation [17]: Compound NOT metabolized
Bacterial Biotransformation [18]: Compound metabolized
Bacterial Biotransformation [19]: Compound NOT metabolized

COc1cc2nc(N3CCN(C(=O)c4ccco4)CC3)nc(N)c2cc1OC [PRAZOSIN]
Bacterial Biotransformation [2]: Compound NOT metabolized
Bacterial Biotransformation [3]: Compound metabolized
Bacterial Biotransformation [4]: Compound metabolized
Bacterial Biotransformation [5]: Compound NOT metabolized
Bacterial Biotransformation [6]: Compound metabolized
Bacterial Biotransformation [7]: Compound NOT metabolized
Bacterial Biotransformation [8]: Compound NOT metabolized
Bacterial Biotransformation [9]: Compound NOT metabolized
Bacterial Biotransformation [10]: Compound metabolized
Bacterial Biotransformation [11]: Compound NOT metabolized
Bacterial Biotransformation [12]: Compound metabolized
Bacterial Biotransformation [13]: Compound NOT metabolized
Bacterial Biotransformation [14]: Compound NOT metabolized
Bacterial Biotransformation [15]: Compound NOT metabolized
Bacterial Biotransformation [16]: Compound metabolized
Bacterial Biotransformation [20]: Compound NOT metabolized
Bacterial Biotransformation [17]: Compound NOT metabolized
Bacterial Biotransformation [18]: Compound NOT metabolized
Bacterial Biotransformation [19]: Compound NOT metabolized
